Data on 29 compounds can be found in ChEMBL document CHEMBL3870309, “Identification of new potent phthalazine derivatives with VEGFR-2 and EGFR kinase inhibitory activity” (Eur J Med Chem, 2016).

Epidermal growth factor receptor, sequence (P00533 whole entry): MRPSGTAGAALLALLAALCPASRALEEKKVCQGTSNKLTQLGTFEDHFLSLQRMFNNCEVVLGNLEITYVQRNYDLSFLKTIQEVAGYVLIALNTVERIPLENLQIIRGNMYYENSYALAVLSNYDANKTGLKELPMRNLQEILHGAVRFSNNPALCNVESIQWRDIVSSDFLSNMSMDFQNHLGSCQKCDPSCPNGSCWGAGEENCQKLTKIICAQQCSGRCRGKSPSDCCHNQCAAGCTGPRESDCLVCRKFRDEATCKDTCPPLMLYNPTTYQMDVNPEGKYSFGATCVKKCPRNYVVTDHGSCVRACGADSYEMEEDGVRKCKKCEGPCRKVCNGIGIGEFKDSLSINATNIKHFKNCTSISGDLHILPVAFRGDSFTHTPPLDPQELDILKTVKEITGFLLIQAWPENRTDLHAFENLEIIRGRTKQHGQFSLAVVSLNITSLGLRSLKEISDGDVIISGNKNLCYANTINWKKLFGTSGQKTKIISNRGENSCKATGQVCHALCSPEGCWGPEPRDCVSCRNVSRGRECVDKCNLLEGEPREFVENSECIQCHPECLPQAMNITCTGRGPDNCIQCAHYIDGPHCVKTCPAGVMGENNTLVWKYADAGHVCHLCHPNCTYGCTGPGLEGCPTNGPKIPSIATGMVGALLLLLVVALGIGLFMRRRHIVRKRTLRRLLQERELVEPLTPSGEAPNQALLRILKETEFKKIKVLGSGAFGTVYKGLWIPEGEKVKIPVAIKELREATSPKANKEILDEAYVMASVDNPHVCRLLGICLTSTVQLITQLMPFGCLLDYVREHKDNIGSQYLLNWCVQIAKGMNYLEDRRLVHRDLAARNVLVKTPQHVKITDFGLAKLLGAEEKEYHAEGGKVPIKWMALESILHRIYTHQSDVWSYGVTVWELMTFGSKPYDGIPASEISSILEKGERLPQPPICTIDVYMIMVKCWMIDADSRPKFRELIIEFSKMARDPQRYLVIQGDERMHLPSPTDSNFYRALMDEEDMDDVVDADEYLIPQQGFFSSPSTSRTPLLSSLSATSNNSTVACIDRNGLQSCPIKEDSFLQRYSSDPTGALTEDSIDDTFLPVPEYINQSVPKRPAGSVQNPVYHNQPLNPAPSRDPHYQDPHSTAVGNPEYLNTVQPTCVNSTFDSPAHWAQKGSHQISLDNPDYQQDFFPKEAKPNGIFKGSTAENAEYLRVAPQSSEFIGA

Test system in the first test: not listed separately
The experiment in a line: cells. The note with it: Homo sapiens, HeLa, 72 h.
Description: Antiproliferative activity against human HeLa cells after 72 hrs by Sulforhodamine B-stain assay
Compound `CCN=C(S)NNc1nncc2ccccc12` came in with a 50% inhibitory concentration (IC50) of 48 nM.
Take `CCN1C(=O)CS/C1=N/Nc1nncc2ccccc12`: the IC50 was determined as 65 nM.
Turning to `S=C(NNc1nncc2ccccc12)Nc1ccc(Cl)cc1`, the midpoint of inhibition, the IC50, lay at 20 nM.
On the same count and under the same terms, the result for `COc1ccc(/C=C/C(=N/Nc2nncc3ccccc23)c2ccc(Cl)cc2)cc1` reads 1.2 nM; that for `Cc1cc(NS(=O)(=O)c2ccc(Nc3nncc4ccccc34)cc2)no1`, 13 nM.
On the same count and under the same terms, the result for `Clc1ccc(/C=C/C(=N/Nc2nncc3ccccc23)c2ccccc2)cc1` reads 2.6 nM; that for `C(=C\c1ccccc1)/C(=N/Nc1nncc2ccccc12)c1ccccc1`, 1.4 nM; that for `CCCCNC(=S)NNc1nncc2ccccc12`, 49 nM.
Same read-out and setting: the figure for `CCOC(=O)c1ccc(Nc2nncc3ccccc23)cc1` is 2.7 nM.
Turning to `O=S(=O)(Nc1ncccn1)c1ccc(Nc2nncc3ccccc23)cc1`, the half-maximal inhibitory concentration (IC50) came out at 14 nM.
Same read-out and setting: the result for `O=C1CS/C(=N/Nc2nncc3ccccc23)N1c1ccc(Cl)cc1` reads 42 nM.
Same read-out and setting: the figure for `N#Cc1ccc(Nc2nncc3ccccc23)cc1` is 1.5 nM.
In turn, `CCCCN1C(=O)CS/C1=N/Nc1nncc2ccccc12` gave an IC50 of 22 nM.
In the case of `S=C(NNc1nncc2ccccc12)Nc1ccccc1`, the 50% inhibitory concentration (IC50) was 39 nM.
`NS(=O)(=O)c1ccc(Nc2nncc3ccccc23)cc1` yielded an IC50 of 12 nM.
On the same count and under the same terms, the result for `COc1ccc(NC(=S)NNc2nncc3ccccc23)cc1` reads 38 nM; that for `O=C(O)c1ccc(Nc2nncc3ccccc23)cc1`, 3.92 nM.
Same read-out and setting: the result for `O=C1CS/C(=N/Nc2nncc3ccccc23)N1` reads 57 nM; that for `Cc1cc(C)nc(NS(=O)(=O)c2ccc(Nc3nncc4ccccc34)cc2)n1`, 3.5 nM.
Still for that read-out and setting: the result for `Fc1ccc(/C=C/C(=N/Nc2nncc3ccccc23)c2ccccc2)cc1` reads 4.45 nM.
In turn, `Clc1ccc(C(/C=C/c2ccccc2)=N\Nc2nncc3ccccc23)cc1` returned an IC50 of 3.3 nM.
Still for that read-out and setting: the figure for `O=S(=O)(Nc1nccs1)c1ccc(Nc2nncc3ccccc23)cc1` is 15 nM; for `COc1ccc(N2C(=O)CS/C2=N/Nc2nncc3ccccc23)cc1` it is 34 nM; for `NC(=S)NNc1nncc2ccccc12` it is 37 nM.
On the same count and under the same terms, the figure for `O=S(=O)(Nc1ccccn1)c1ccc(Nc2nncc3ccccc23)cc1` is 26 nM; for `Fc1ccc(Nc2nncc3ccccc23)cc1` it is 2.8 nM.
In the case of `O=C1CS/C(=N/Nc2nncc3ccccc23)N1c1ccccc1`, the IC50 turned out to be 56 nM.
The same measure, in the same setting: the figure for `Cc1ccc(C(/C=C/c2ccc(F)cc2)=N\Nc2nncc3ccccc23)cc1` is 3.4 nM.

The next test deals with Vascular endothelial growth factor receptor 2 (Homo sapiens, UniProt P35968). As to the kind of experiment: Inhibition of VEGFR-2 (unknown origin) using poly (Glu, Tyr) 4:1 as substrate after 1 hr by ELISA.
Vascular endothelial growth factor receptor 2, sequence (P35968 whole entry): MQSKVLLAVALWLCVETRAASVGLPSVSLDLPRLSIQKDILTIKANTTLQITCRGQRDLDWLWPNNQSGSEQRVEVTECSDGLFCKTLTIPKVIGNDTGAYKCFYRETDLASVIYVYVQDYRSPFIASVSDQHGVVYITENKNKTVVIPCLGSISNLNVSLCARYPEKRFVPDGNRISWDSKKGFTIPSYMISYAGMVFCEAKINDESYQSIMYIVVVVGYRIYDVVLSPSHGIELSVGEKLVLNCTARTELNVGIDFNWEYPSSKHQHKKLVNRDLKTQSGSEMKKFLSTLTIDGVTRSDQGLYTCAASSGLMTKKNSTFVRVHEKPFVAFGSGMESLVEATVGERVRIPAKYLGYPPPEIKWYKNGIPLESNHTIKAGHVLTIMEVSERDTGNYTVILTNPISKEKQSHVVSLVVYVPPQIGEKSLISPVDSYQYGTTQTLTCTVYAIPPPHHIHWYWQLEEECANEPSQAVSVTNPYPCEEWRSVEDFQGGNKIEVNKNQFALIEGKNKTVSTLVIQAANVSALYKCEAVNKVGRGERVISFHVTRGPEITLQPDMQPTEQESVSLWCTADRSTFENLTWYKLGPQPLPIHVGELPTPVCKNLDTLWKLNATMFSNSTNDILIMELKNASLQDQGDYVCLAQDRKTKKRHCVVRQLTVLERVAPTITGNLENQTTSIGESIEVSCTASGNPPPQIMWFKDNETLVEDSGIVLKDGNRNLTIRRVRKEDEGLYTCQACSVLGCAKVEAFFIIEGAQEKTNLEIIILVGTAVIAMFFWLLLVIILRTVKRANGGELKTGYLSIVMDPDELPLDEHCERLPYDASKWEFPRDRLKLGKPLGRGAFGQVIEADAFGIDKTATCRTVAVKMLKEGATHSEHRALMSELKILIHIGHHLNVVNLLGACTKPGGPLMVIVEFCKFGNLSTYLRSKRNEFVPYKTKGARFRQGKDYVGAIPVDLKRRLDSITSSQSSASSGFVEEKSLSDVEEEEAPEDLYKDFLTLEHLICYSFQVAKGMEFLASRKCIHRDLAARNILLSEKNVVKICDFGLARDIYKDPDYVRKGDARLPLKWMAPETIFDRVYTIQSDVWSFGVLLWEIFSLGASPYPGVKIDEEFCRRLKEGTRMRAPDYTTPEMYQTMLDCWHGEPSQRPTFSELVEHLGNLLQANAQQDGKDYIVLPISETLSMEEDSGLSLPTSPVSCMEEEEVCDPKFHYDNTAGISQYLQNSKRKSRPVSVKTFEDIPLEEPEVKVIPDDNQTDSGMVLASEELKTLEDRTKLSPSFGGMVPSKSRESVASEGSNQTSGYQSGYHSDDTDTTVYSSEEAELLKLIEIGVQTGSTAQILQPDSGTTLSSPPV
Conditions: not given
On the technique in general: In an ELISA, binding on a coated surface is turned into a signal by an enzyme label.
`CCN=C(S)NNc1nncc2ccccc12`: the IC50 is 7.3 nM.
The same measure, in the same setting: the result for `CCN1C(=O)CS/C1=N/Nc1nncc2ccccc12` reads 3.6 nM; that for `S=C(NNc1nncc2ccccc12)Nc1ccc(Cl)cc1`, 6.1 nM.
Still for that read-out and setting: the figure for `COc1ccc(/C=C/C(=N/Nc2nncc3ccccc23)c2ccc(Cl)cc2)cc1` is 0.41 nM.
The same measure, in the same setting: the figure for `Cc1cc(NS(=O)(=O)c2ccc(Nc3nncc4ccccc34)cc2)no1` is 9.7 nM.
Compound `Clc1ccc(/C=C/C(=N/Nc2nncc3ccccc23)c2ccccc2)cc1` returned an IC50 of 0.55 nM.
On the same count and under the same terms, the result for `C(=C\c1ccccc1)/C(=N/Nc1nncc2ccccc12)c1ccccc1` reads 0.42 nM.
Same read-out and setting: the result for `CCCCNC(=S)NNc1nncc2ccccc12` reads 4.5 nM; that for `CCOC(=O)c1ccc(Nc2nncc3ccccc23)cc1`, 0.54 nM; that for `O=S(=O)(Nc1ncccn1)c1ccc(Nc2nncc3ccccc23)cc1`, 8.5 nM.
On the same count and under the same terms, the figure for `O=C1CS/C(=N/Nc2nncc3ccccc23)N1c1ccc(Cl)cc1` is 2.7 nM; for `N#Cc1ccc(Nc2nncc3ccccc23)cc1` it is 0.43 nM; for `CCCCN1C(=O)CS/C1=N/Nc1nncc2ccccc12` it is 1.2 nM.
For `S=C(NNc1nncc2ccccc12)Nc1ccccc1`, the half-inhibitory concentration (IC50) stood at 6.2 nM.
Still for that read-out and setting: the figure for `NS(=O)(=O)c1ccc(Nc2nncc3ccccc23)cc1` is 9.8 nM; for `COc1ccc(NC(=S)NNc2nncc3ccccc23)cc1` it is 5.7 nM.
Still for that read-out and setting: the figure for `O=C(O)c1ccc(Nc2nncc3ccccc23)cc1` is 0.68 nM; for `O=C1CS/C(=N/Nc2nncc3ccccc23)N1` it is 4.4 nM; for `Cc1cc(C)nc(NS(=O)(=O)c2ccc(Nc3nncc4ccccc34)cc2)n1` it is 0.77 nM.
The same measure, in the same setting: the result for `Fc1ccc(/C=C/C(=N/Nc2nncc3ccccc23)c2ccccc2)cc1` reads 0.88 nM.
For the compound `Clc1ccc(C(/C=C/c2ccccc2)=N\Nc2nncc3ccccc23)cc1`, half-maximal inhibition (IC50) was put at 0.69 nM.
The same measure, in the same setting: the figure for `O=S(=O)(Nc1nccs1)c1ccc(Nc2nncc3ccccc23)cc1` is 8.6 nM; for `COc1ccc(N2C(=O)CS/C2=N/Nc2nncc3ccccc23)cc1` it is 2.4 nM; for `NC(=S)NNc1nncc2ccccc12` it is 7.5 nM.
As to `O=S(=O)(Nc1ccccn1)c1ccc(Nc2nncc3ccccc23)cc1`, the IC50 worked out at 7.8 nM.
The same measure, in the same setting: the figure for `Fc1ccc(Nc2nncc3ccccc23)cc1` is 0.67 nM; for `O=C1CS/C(=N/Nc2nncc3ccccc23)N1c1ccccc1` it is 3.5 nM.
The same measure, in the same setting: the figure for `Cc1ccc(C(/C=C/c2ccc(F)cc2)=N\Nc2nncc3ccccc23)cc1` is 0.7 nM; for `Oc1cc(O)c2cc(O)c(-c3cc(O)c(O)c(O)c3)[o+]c2c1` [DELPHINIDIN CHLORIDE] it is 5.09 nM.

The next test addresses Epidermal growth factor receptor (Homo sapiens, UniProt P00533). As to the kind of experiment: Inhibition of EGFR (unknown origin) using poly (Glu, Tyr) 4:1 as substrate after 1 hr by ELISA.
Conditions: not given
Consider `CCN=C(S)NNc1nncc2ccccc12`, for which it took 76 nM to reach half-maximal inhibition (IC50).
Same read-out and setting: the result for `CCN1C(=O)CS/C1=N/Nc1nncc2ccccc12` reads 47 nM.
Take `S=C(NNc1nncc2ccccc12)Nc1ccc(Cl)cc1`: the IC50 is 64 nM.
In the case of `COc1ccc(/C=C/C(=N/Nc2nncc3ccccc23)c2ccc(Cl)cc2)cc1`, the IC50 stood at 5.4 nM.
Turning to `Cc1cc(NS(=O)(=O)c2ccc(Nc3nncc4ccccc34)cc2)no1`, the midpoint of inhibition, the IC50, lay at 130 nM.
As to `Clc1ccc(/C=C/C(=N/Nc2nncc3ccccc23)c2ccccc2)cc1`, inhibition was half-maximal at 4.6 nM (IC50).
Still for that read-out and setting: the figure for `C(=C\c1ccccc1)/C(=N/Nc1nncc2ccccc12)c1ccccc1` is 5.6 nM; for `CCCCNC(=S)NNc1nncc2ccccc12` it is 52 nM; for `CCOC(=O)c1ccc(Nc2nncc3ccccc23)cc1` it is 4.4 nM.
`O=S(=O)(Nc1ncccn1)c1ccc(Nc2nncc3ccccc23)cc1` displayed a half-inhibitory concentration (IC50) of 86 nM.
On the same count and under the same terms, the figure for `O=C1CS/C(=N/Nc2nncc3ccccc23)N1c1ccc(Cl)cc1` is 42 nM; for `N#Cc1ccc(Nc2nncc3ccccc23)cc1` it is 4.1 nM; for `CCCCN1C(=O)CS/C1=N/Nc1nncc2ccccc12` it is 23 nM.
In turn, `S=C(NNc1nncc2ccccc12)Nc1ccccc1` registered an IC50 of 65 nM.
`NS(=O)(=O)c1ccc(Nc2nncc3ccccc23)cc1` displayed a half-inhibitory concentration (IC50) of 140 nM.
On the same count and under the same terms, the result for `COc1ccc(NC(=S)NNc2nncc3ccccc23)cc1` reads 53 nM; that for `O=C(O)c1ccc(Nc2nncc3ccccc23)cc1`, 6.2 nM.
The same measure, in the same setting: the figure for `O=C1CS/C(=N/Nc2nncc3ccccc23)N1` is 51 nM; for `Cc1cc(C)nc(NS(=O)(=O)c2ccc(Nc3nncc4ccccc34)cc2)n1` it is 6.7 nM.
Still for that read-out and setting: the result for `Clc1ccc(C(/C=C/c2ccccc2)=N\Nc2nncc3ccccc23)cc1` reads 6.3 nM; that for `O=S(=O)(Nc1nccs1)c1ccc(Nc2nncc3ccccc23)cc1`, 88 nM.
`COc1ccc(N2C(=O)CS/C2=N/Nc2nncc3ccccc23)cc1` gave a concentration for half-maximal inhibition (IC50) of 36 nM.
For the compound `NC(=S)NNc1nncc2ccccc12`, the half-inhibitory concentration (IC50) came to 77 nM.
On the same count and under the same terms, the result for `O=S(=O)(Nc1ccccn1)c1ccc(Nc2nncc3ccccc23)cc1` reads 84 nM; that for `Fc1ccc(Nc2nncc3ccccc23)cc1`, 6 nM; that for `O=C1CS/C(=N/Nc2nncc3ccccc23)N1c1ccccc1`, 45 nM.
For the compound `Cc1ccc(C(/C=C/c2ccc(F)cc2)=N\Nc2nncc3ccccc23)cc1`, the IC50 was determined as 6.5 nM.
Same read-out and setting: the figure for `Oc1cc(O)c2cc(O)c(-c3cc(O)c(O)c(O)c3)[o+]c2c1` [DELPHINIDIN CHLORIDE] is 6.27 nM.

What is called IC50 is the concentration that gives 50% inhibition. A higher IC50 goes with a need for much substance.
